Article PMC6271978, “1H-2,3-Dihydroperimidine Derivatives: A New Class of Potent Protein Tyrosine Phosphatase 1B Inhibitors” (Molecules, 2013)

Experiments:
[1] = target: T1, PTP1B (GST-PTP1B) (Homo sapiens, UniProt P18031); assay: PTP1B inhibition, colorimetric pNPP assay; assay type: biochemical; conditions: for inhibition at 20 µg/mL: PTP1B, compound at 20 μg/mL; for inhibition at 20 µg/mL / IC50: pNPP substrate; for PTP1B inhibitory activity (in words): pNPP assay, tested at 20 μg/mL; for IC50: means ± SD of three replications, OA/PC = oleanolic acid positive control
T1 sequence (P18031 1-435): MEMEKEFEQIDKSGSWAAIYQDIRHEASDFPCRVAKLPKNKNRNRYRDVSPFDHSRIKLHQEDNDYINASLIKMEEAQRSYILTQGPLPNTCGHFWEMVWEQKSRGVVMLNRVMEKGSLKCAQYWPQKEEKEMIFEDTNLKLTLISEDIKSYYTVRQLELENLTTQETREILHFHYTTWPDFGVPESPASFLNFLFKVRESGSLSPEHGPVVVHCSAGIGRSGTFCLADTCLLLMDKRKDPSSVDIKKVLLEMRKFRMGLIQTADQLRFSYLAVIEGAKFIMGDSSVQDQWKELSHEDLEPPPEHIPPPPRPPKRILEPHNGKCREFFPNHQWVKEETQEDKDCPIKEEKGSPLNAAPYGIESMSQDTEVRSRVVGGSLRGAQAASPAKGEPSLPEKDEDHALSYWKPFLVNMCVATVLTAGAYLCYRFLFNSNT

inhibition at 20 µg/mL [1] | PTP1B inhibitory activity (in words) [1] | melting point | IC50 [1] | Structure (SMILES)
0.51% | no activity | > 265 °C |  | O=C(O)C(=O)Nc1ccc(C2Nc3cccc4cccc(c34)N2)cc1 [Compound 30, 2-{[4-(2,3-Dihydro-1H-perimidin-2-yl)phenyl]amino}-2-oxoacetic acid]
0.29% | no inhibitory activity | 239.7 to 241.2 °C |  | NCCC(=O)Nc1ccc(C2Nc3cccc4cccc(c34)N2)cc1 [Compound 35]
10.5% | no inhibitory activity | 126.3 to 130.9 °C |  | O=C(O)CCCOc1ccc(C2Nc3cccc4cccc(c34)N2)cc1 [Compound 24]
29.9% | no activity |  |  | O=C(O)CCC(=O)Nc1ccc(C2Nc3cccc4cccc(c34)N2)cc1 [Compound 32]
98.4% |  | > 265 °C | 5.88 ± 0.25 µM | O=C(O)COc1ccc(C2Nc3cccc4cccc(c34)N2)cc1 [Compound 23, 2-[4-(2,3-Dihydro-1H-perimidin-2-yl)phenoxy]acetic acid]
96.6% |  | 100.7 to 101.3 °C | 10.8 ± 0.69 µM | O=C(O)c1ccc(C2Nc3cccc4cccc(c34)N2)nc1 [Compound 41]
6.83% |  | 128.6 to 132.5 °C |  | CCOC(=O)CCCNC(=O)c1ccc(C2Nc3cccc4cccc(c34)N2)cc1 [Compound 12, Ethyl 4-(4-(2,3-dihydro-1H-perimidin-2-yl)benzamido)butanoate]
4.67% |  | 100.1 to 105.4 °C |  | COC(=O)CCCNC(=O)c1ccc(C2Nc3cccc4cccc(c34)N2)nc1 [Compound 43, Methyl 4-[6-(2,3-dihydro-1H-perimidin-2-yl)nicotinamido]butanoate]
91.5% |  | 117.1 to 120.3 °C | 3.56 ± 0.13 µM | O=C(O)CCCCNC(=O)c1ccc(C2Nc3cccc4cccc(c34)N2)nc1 [Compound 48, 5-[6-(2,3-Dihydro-1H-perimidin-2-yl)nicotinamido]pentanoic acid]
12.6% | no inhibitory activity | 111.1 to 113.7 °C |  | CC(C)(C)OC(=O)NCCC(=O)Nc1ccc(C2Nc3cccc4cccc(c34)N2)cc1 [Compound 34]
15.3% |  |  |  | COC(=O)c1ccc(C2Nc3cccc4cccc(c34)N2)cc1 [Compound 9]
73.1% |  | 99.7 to 103.3 °C | 22.2 ± 1.6 µM | O=C(O)CCCNC(=O)c1ccc(C2Nc3cccc4cccc(c34)N2)cc1 [Compound 17, 4-(4-(2,3-Dihydro-1H-perimidin-2-yl)benzamido)butanoic acid]
4.74% |  | 109.4 to 113.5 °C |  | CCOC(=O)CCCCNC(=O)c1ccc(C2Nc3cccc4cccc(c34)N2)nc1 [Compound 44, Ethyl 5-[6-(2,3-dihydro-1H-perimidin-2-yl)nicotinamido]pentanoate]
90% |  | 85.4 to 90.3 °C | 27.8 ± 5.45 µM | O=C(O)CNC(=O)c1ccc(C2Nc3cccc4cccc(c34)N2)cc1 [Compound 16]
95.3% |  | 90.8 to 91.9 °C | 7.82 ± 0.27 µM | O=C(O)CCCCCNC(=O)c1ccc(C2Nc3cccc4cccc(c34)N2)cc1 [Compound 19, 6-(4-(2,3-Dihydro-1H-perimidin-2-yl)benzamido)hexanoic acid]
42.1% |  | 183.6 to 184.7 °C |  | COC(=O)CNC(=O)c1ccc(C2Nc3cccc4cccc(c34)N2)nc1 [Compound 42]
42.5% |  | 161.7 to 163.3 °C |  | Brc1cccc(C2Nc3cccc4cccc(c34)N2)c1 [Compound 3, 2-(3-Bromophenyl)-2,3-dihydro-1H-perimidine]
1.68% |  | 158.2 to 160.7 °C |  | CCOC(=O)CC(=O)Nc1ccc(C2Nc3cccc4cccc(c34)N2)cc1 [Compound 27, Ethyl 3-{[4-(2,3-dihydro-1H-perimidin-2-yl)phenyl]amino}-3-oxopropanoate]
10.8% |  | 119.3 to 123.8 °C |  | CCOC(=O)CCCCCNC(=O)c1ccc(C2Nc3cccc4cccc(c34)N2)nc1 [Compound 45, Ethyl 6-[6-(2,3-dihydro-1H-perimidin-2-yl)nicotinamido]hexanoate]
2.92% |  | 139.9 to 142.5 °C |  | CCOC(=O)CCCC(=O)Nc1ccc(C2Nc3cccc4cccc(c34)N2)cc1 [Compound 29, Ethyl 5-{[4-(2,3-dihydro-1H-perimidin-2-yl]phenyl)amino}-5-oxopentanoate]

inhibition at 20 µg/mL [1] | PTP1B inhibitory activity (in words) [1] | melting point | IC50 [1] | Structure (SMILES)
2.04% | did not show inhibitory activity | 93.8 to 96.4 °C |  | CCOC(=O)CCCCOc1ccc(C2Nc3cccc4cccc(c34)N2)cc1 [Compound 22, Ethyl 5-[4-(2,3-dihydro-1H-perimidin-2-yl)phenoxy]pentanoate]
6.4% |  |  |  | COC(=O)c1ccc(C2Nc3cccc4cccc(c34)N2)nc1 [Compound 40]
26.2% |  | 171.3 to 176 °C |  | COC(=O)C1CCCN1C(=O)c1ccc(C2Nc3cccc4cccc(c34)N2)cc1 (stereo not shown) [Compound 10, Methyl 1-(4-(2,3-dihydro-1H-perimidin-2-yl)benzoyl)pyrrolidine-2-carboxylate]
23.8% |  | 166.4 to 171.9 °C |  | Nc1ccc(C2Nc3cccc4cccc(c34)N2)cc1 [Compound 8]
7.45% | did not show inhibitory activity | 76.2 to 78.6 °C |  | CCOC(=O)CCCOc1ccc(C2Nc3cccc4cccc(c34)N2)cc1 [Compound 21]
17.5% |  |  |  | Brc1ccccc1C1Nc2cccc3cccc(c23)N1 [Compound 4, 2-(2-Bromophenyl)-2,3-dihydro-1H-perimidine]
95.1% |  | > 265 °C | 6.91 ± 1.17 µM | O=C(O)CCCC(=O)Nc1ccc(C2Nc3cccc4cccc(c34)N2)cc1 [Compound 33, 5-{[4-(2,3-Dihydro-1H-perimidin-2-yl)phenyl]amino}-5-oxopentanoic acid]
29.7% |  | 165.8 to 170.9 °C |  | CCOC(=O)CCC(=O)Nc1ccc(C2Nc3cccc4cccc(c34)N2)cc1 [Compound 28]
91.8% |  | 132.3 to 135.5 °C | 1.27 ± 0.06 µM | CCOC(=O)C(=O)Nc1ccc(C2Nc3cccc4cccc(c34)N2)cc1 [Compound 26, Ethyl 2-{[4-(2,3-dihydro-1H-perimidin-2-yl)phenyl]amino}-2-oxoacetate]
35.6% |  | 145.8 to 147.4 °C |  | CCOC(=O)CCCCCNC(=O)c1ccc(C2Nc3cccc4cccc(c34)N2)cc1 [Compound 14, Ethyl 6-(4-(2,3-dihydro-1H-perimidin-2-yl)benzamido)hexanoate]
7.18% |  |  |  | Oc1ccc(C2Nc3cccc4cccc(c34)N2)cc1 [Compound 5, 4-(2,3-Dihydro-1H-perimidin-2-yl)phenol]
94.8% |  | 102.8 to 107.4 °C | 5.53 ± 0.54 µM | O=C(O)CCCCNC(=O)c1ccc(C2Nc3cccc4cccc(c34)N2)cc1 [Compound 18, 5-(4-(2,3-Dihydro-1H-perimidin-2-yl)benzamido)pentanoic acid]
32.1% | no inhibitory activity | 165.9 to 167.8 °C |  | O=C(O)CCCCOc1ccc(C2Nc3cccc4cccc(c34)N2)cc1 [Compound 25, 5-[4-(2,3-Dihydro-1H-perimidin-2-yl)phenoxy]pentanoic acid]
31.6% |  | 204.4 to 208.4 °C |  | N#Cc1cc(C2Nc3cccc4cccc(c34)N2)ccc1F [Compound 6, 5-(2,3-Dihydro-1H-perimidin-2-yl)-2-fluorobenzonitrile]
96.8% |  | 221.3 to 223.4 °C | 6.45 ± 0.42 µM | O=C(O)CC(=O)Nc1ccc(C2Nc3cccc4cccc(c34)N2)cc1 [Compound 31, 3-{[4-(2,3-Dihydro-1H-perimidin-2-yl)phenyl]amino}-3-oxopropanoic acid]
84.2% |  | 233.1 to 234.3 °C | 20.2 ± 1.94 µM | O=C(O)C1CCCN1C(=O)c1ccc(C2Nc3cccc4cccc(c34)N2)cc1 (stereo not shown) [Compound 15, 1-(4-(2,3-Dihydro-1H-perimidin-2-yl)benzoyl)pyrrolidine-2-carboxylic acid]
4.81% |  | 193.3 to 198.7 °C |  | COC(=O)CNC(=O)c1ccc(C2Nc3cccc4cccc(c34)N2)cc1 [Compound 11]
28.5% |  | 141.8 to 143.1 °C |  | CCOC(=O)CCCCNC(=O)c1ccc(C2Nc3cccc4cccc(c34)N2)cc1 [Compound 13, Ethyl 5-(4-(2,3-dihydro-1H-perimidin-2-yl)benzamido)pentanoate]
37% |  |  |  | Brc1ccc(C2Nc3cccc4cccc(c34)N2)cc1 [Compound 2]
98.5% |  | 95.3 to 99 °C | 15.2 ± 1.41 µM | O=C(O)CCCNC(=O)c1ccc(C2Nc3cccc4cccc(c34)N2)nc1 [Compound 47, 4-[6-(2,3-Dihydro-1H-perimidin-2-yl)nicotinamido]butanoic acid]
